Laboratory results as given in ChEMBL document CHEMBL6127075, “Tetrazoles: A multi-potent motif in drug design” (Eur J Med Chem, 2024).
In brackets after ≈: the same amount, converted by molar mass.

Legend:
[1] = biological target: Type-1 angiotensin II receptor (Homo sapiens) (UniProt P30556); assay: Inhibition of Angiotensin-2 receptor (unknown origin)
[2] = biological target: T1, Tyrosine-protein phosphatase non-receptor type 1 (Homo sapiens, UniProt P18031); assay: Inhibition of PTP1B (unknown origin)
T1 sequence (P18031 whole entry): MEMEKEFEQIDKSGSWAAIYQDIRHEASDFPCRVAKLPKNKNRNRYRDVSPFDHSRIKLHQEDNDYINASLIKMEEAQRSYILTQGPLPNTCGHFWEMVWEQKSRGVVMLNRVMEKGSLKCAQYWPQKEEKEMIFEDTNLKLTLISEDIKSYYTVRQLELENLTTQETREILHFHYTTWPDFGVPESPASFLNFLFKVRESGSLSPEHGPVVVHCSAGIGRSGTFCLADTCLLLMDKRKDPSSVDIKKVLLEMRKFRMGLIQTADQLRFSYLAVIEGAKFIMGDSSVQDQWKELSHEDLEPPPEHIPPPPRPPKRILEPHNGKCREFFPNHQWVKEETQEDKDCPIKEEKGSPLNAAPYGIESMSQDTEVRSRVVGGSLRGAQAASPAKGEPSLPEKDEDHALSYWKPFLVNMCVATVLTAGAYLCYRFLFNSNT

PC-3 [3] = assay: Antiproliferative activity against human PC-3 cells assessed as inhibition of cell growth measured after 24 hrs by MTT assay; format: functional, cell-based; details: PC-3, 24 h
DU-145 = assay: Antiproliferative activity against human DU-145 cells assessed as inhibition of cell growth measured after 24 hrs by MTT assay; format: functional, cell-based; details: DU-145, 24 h
[4] = Antiproliferative activity against human RWPE-1 cells assessed as inhibition of cell growth measured after 24 hrs by MTT assay; format: toxicity, cell-based
Escherichia coli [5] = assay: Antimicrobial activity against Escherichia coli NCTC 8196 assessed as reduction in microbial growth measured fro 18 hrs by two-fold serial dilution method; format: functional
[6] = test system: Staphylococcus epidermidis; assay: Antibacterial activity against Staphylococcus epidermidis ATCC 12228 assessed as reduction in microbial growth by incubated for 18 hrs CLSI based broth microdilution method; format: functional
Escherichia coli [7] = assay: Antibacterial activity against Escherichia coli ATCC 25922 assessed as reduction in microbial growth by incubated for 18 hrs CLSI based broth microdilution method; format: functional
HUVEC = assay: Antiproliferative activity against HUVEC cells assessed as inhibition of cell proliferation incubated for 72 hrs by Cell Titer Luminescence assay; format: functional, cell-based; details: Homo sapiens
HepG2 = assay: Cytotoxicity against human HepG2 cells assessed as reduction in cell viability incubated for 24 hrs by MTT assay; format: functional, cell-based; details: HepG2, 24 h
MCF7 [8] = assay: Cytotoxicity against human MCF7 cells assessed as reduction in cell viability incubated for 24 hrs by MTT assay; format: functional, cell-based; details: MCF7, 24 h
PC-3 [9] = assay: Cytotoxicity against human PC-3 cells assessed as reduction in cell growth incubated for 24 hrs by MTT assay; format: functional, cell-based; details: PC-3, 24 h
MCF7 [10] = assay: Cytotoxicity against human MCF7 cells assessed as reduction in cell growth at 25 uM incubated for 48 hrs by MTT assay relative to control; format: functional; set-up: scale not given: the % may be the effect or the level left
CCRF-CEM = assay: Cytotoxicity against human CCRF-CEM cells assessed as reduction in cell growth at 25 uM incubated for 48 hrs by MTT assay relative to control; format: functional; set-up: scale not given: the % may be the effect or the level left
[11] = Antioxidant activity assessed as DPPH radical scavenging activity after 30 mins by spectrophotometric analysis; format: functional
Pseudomonas aeruginosa [12] = assay: Antimicrobial activity against Pseudomonas aeruginosa ATCC 27853 assessed as inhibition of microbial growth incubated for 24 hrs by broth microdilution method; format: functional
Staphylococcus aureus [13] = assay: Antibacterial activity against Staphylococcus aureus ATCC 29213 assessed as bacterial growth inhibition incubated for 24 hrs by broth dilution method; format: functional
[14] = test system: Staphylococcus epidermidis; assay: Antibacterial activity against Staphylococcus epidermidis ATCC 12228 assessed as bacterial growth inhibition incubated for 24 hrs by broth dilution method; format: functional
Escherichia coli [15] = assay: Antibacterial activity against Escherichia coli ATCC 25922 assessed as bacterial growth inhibition incubated for 24 hrs by broth dilution method; format: functional
Staphylococcus aureus [16] = assay: Antibacterial activity against Staphylococcus aureus MTCC-96 assessed as bacterial growth inhibition after 24 hrs by broth macro dilution method; format: functional
Pseudomonas aeruginosa [17] = assay: Antibacterial activity against Pseudomonas aeruginosa assessed as bacterial growth inhibition after 24 hrs by broth macro dilution method; format: functional
Micrococcus luteus = assay: Antibacterial activity against Micrococcus luteus assessed as bacterial growth inhibition after 24 hrs by broth macro dilution method; format: functional
Escherichia coli [18] = assay: Antibacterial activity against Escherichia coli assessed as bacterial growth inhibition after 24 hrs by broth macro dilution method; format: functional
Staphylococcus aureus [19] = assay: Antibacterial activity against Staphylococcus aureus MTCC-739 assessed as bacterial growth inhibition after 24 hrs by broth macro dilution method; format: functional
Pichia kudriavzevii = assay: Antifungal activity against Candida krusei ATCC 6258 assessed as inhibition of fungal growth incubated for 24 hrs by microtiter plate reader assay; format: functional
Cholinesterase = Cholinesterase (Homo sapiens, UniProt P06276); assay: Inhibition of BChE (unknown origin) using acetylthiocholine iodide as substrate preincubated for 20 mins followed by substrate addition and measured after 5 mins by Ellman's method
Nannizzia gypsea = assay: Antifungal activity against Microsporum gypseum assessed as reduction in fungal growth; format: functional
Staphylococcus aureus [20] = assay: Antibacterial activity against Staphylococcus aureus assessed as reduction in microbial growth by CLSI based broth microdilution method; format: functional
Aspergillus flavus = assay: Antifungal activity against Aspergillus flavus assessed as inhibition of fungal growth; format: functional
[21] = Antagonist activity at NMDA receptor (unknown origin); set-up: species or system Homo sapiens

Chain of Type-1 angiotensin II receptor (Homo sapiens) (P30556 whole entry, looked up): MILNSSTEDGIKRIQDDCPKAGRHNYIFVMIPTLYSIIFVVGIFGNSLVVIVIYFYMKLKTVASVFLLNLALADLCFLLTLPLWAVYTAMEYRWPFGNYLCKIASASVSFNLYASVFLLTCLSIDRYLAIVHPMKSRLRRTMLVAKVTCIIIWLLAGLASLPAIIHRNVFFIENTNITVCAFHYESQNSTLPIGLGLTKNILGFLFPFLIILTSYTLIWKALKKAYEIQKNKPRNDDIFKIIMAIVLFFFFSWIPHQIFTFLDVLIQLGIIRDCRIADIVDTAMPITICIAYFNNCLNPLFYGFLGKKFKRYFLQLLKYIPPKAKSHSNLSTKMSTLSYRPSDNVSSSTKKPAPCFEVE
Chain of Cholinesterase (P06276 whole entry): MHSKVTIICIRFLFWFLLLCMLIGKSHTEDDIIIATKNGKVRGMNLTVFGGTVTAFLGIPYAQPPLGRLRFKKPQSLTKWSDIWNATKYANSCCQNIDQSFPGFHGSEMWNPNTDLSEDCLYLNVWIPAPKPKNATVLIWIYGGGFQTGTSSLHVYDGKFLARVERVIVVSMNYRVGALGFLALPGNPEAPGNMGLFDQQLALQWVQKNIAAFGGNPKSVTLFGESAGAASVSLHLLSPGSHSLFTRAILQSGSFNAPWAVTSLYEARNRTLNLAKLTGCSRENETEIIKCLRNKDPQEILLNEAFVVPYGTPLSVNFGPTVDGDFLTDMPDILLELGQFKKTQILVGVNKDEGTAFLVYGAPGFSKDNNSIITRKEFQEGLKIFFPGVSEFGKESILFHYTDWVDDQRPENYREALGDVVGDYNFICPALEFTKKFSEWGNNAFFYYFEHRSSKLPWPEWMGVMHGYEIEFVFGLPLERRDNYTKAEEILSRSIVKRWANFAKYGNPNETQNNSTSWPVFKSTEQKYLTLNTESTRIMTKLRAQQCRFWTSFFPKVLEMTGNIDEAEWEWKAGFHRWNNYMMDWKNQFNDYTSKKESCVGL

O=P(O)(O)CN[C@@H](Cc1ccc(-c2ccccc2)cc1)c1nnn[nH]1
IC50 [1]: 0.0009 µM

OC1C2CC3CC1CC(C2)C3(Cc1nnn[nH]1)c1ccc(-c2ccc(F)cc2)cc1 (stereo not drawn)
IC50 [2]: 0.0037 µM

O=C1N(Cc2ccc(Br)cc2)c2ccccc2C1(O)Cc1nnn[nH]1 (stereo not drawn)
IC50 (PC-3 [3]): 10.1 µM | IC50 (DU-145): 11.7 µM | IC50 at 24 h [4]: 76 µM

Cc1ccc(-n2nnnc2NCc2ccco2)cc1Cl
MIC (Escherichia coli [5]): 2 µg/mL | MIC [6]: 2 µg/mL | MIC (Escherichia coli [7]): 2 µg/mL

Fc1ccc(-n2nnnc2NCc2ccco2)cc1Cl
MIC (Escherichia coli [5]): 2 µg/mL | MIC [6]: 2 µg/mL | MIC (Escherichia coli [7]): 2 µg/mL

CCC(C)n1ncn(-c2ccc(N3CCN(c4ccc(OC[C@@H]5CO[C@@](Cn6ncnn6)(c6ccc(Cl)cc6Cl)O5)cc4)CC3)cc2)c1=O (stereo partly drawn)
IC50 (HUVEC): 0.073 µM

Clc1ccc(-c2nnn(-c3[se]nnc3-c3ccc(Cl)cc3)n2)cc1
IC50 (HepG2): 43.2 µM | IC50 (MCF7 [8]): 43.2 µM

Clc1ccc(-c2nn[se]c2-n2nnc(-c3ccccc3)n2)cc1
IC50 (HepG2): 43.2 µM | IC50 (MCF7 [8]): 43.2 µM

Clc1ccc(-c2nn[se]c2-n2nnc(-c3ccccc3Cl)n2)cc1
IC50 (HepG2): 43.2 µM | IC50 (MCF7 [8]): 43.2 µM

O=C(O)Cn1nnc(-c2cn(-c3ccccc3)nc2-c2ccc(Cl)cc2)n1
IC50 (PC-3 [9]): 6.43 µM

Clc1ccccc1-c1nnnn1CCCn1cnc2c(Br)c(Br)c(Br)c(Br)c21
Activity (MCF7 [10]): <1% | Activity (CCRF-CEM): <1%

Brc1c(Br)c(Br)c2c(ncn2CCCn2nnnc2-c2ccccc2)c1Br
Activity (MCF7 [10]): <1% | Activity (CCRF-CEM): <1%

O=S(=O)(c1ccccc1)n1nnc(CCSc2cc3ccccc3[nH]2)n1
IC50 [11]: 27.63 µg/mL (≈ 71.7 µM)

CC1=C(C)C2(C)CC1(C)C1C(=O)N(Nc3nnnn3-c3ccccc3Cl)C(=O)C12 (stereo not drawn)
MIC (Pseudomonas aeruginosa [12]): 0.4 µg/mL | MIC (Staphylococcus aureus [13]): 0.4 µg/mL (≈ 0.969 µM) | MIC [14]: 0.4 µg/mL (≈ 0.969 µM) | MIC (Escherichia coli [15]): 0.4 µg/mL (≈ 0.969 µM)

Cn1ncc2cc(-n3cc(CSc4nnnn4-c4ccc(F)cc4F)nn3)ccc21
MIC (Staphylococcus aureus [16]): 5 µg/mL (≈ 11.8 µM) | MIC (Pseudomonas aeruginosa [17]): 5 µg/mL (≈ 11.8 µM) | MIC (Micrococcus luteus): 5 µg/mL (≈ 11.8 µM) | MIC (Escherichia coli [18]): 5 µg/mL (≈ 11.8 µM) | MIC (Staphylococcus aureus [19]): 5 µg/mL (≈ 11.8 µM)

Cc1cn(C2OC(CO)CC2n2nnnc2Cc2c[nH]c3ccccc23)c(=O)[nH]c1=O (stereo not drawn)
IC50 [11]: 25.87 µg/mL (≈ 61.1 µM)

CC1=C(C)C2(C)CC1(C)C1C(=O)N(Nc3nnnn3-c3cccc(C(F)(F)F)c3)C(=O)C12 (stereo not drawn)
MIC (Pseudomonas aeruginosa [12]): 0.4 µg/mL | MIC (Staphylococcus aureus [13]): 0.4 µg/mL (≈ 0.896 µM) | MIC [14]: 0.4 µg/mL (≈ 0.896 µM) | MIC (Escherichia coli [15]): 0.4 µg/mL (≈ 0.896 µM)

Cc1cn(C2OC(CO)CC2n2nnnc2-c2cccnc2Cl)c(=O)[nH]c1=O (stereo not drawn)
IC50 [11]: 25.87 µg/mL (≈ 63.8 µM)

Clc1ncccc1-c1nnn[nH]1
IC50 [11]: 27.63 µg/mL (≈ 152 µM)

Cn1ncc2cc(-n3cc(CSc4nnnn4-c4cccc(O)c4)nn3)ccc21
MIC (Staphylococcus aureus [16]): 5 µg/mL (≈ 12.3 µM) | MIC (Pseudomonas aeruginosa [17]): 5 µg/mL (≈ 12.3 µM) | MIC (Micrococcus luteus): 5 µg/mL (≈ 12.3 µM) | MIC (Escherichia coli [18]): 5 µg/mL (≈ 12.3 µM) | MIC (Staphylococcus aureus [19]): 5 µg/mL (≈ 12.3 µM)

Fc1ccccc1-n1nnnc1NCc1ccco1
MIC (Escherichia coli [5]): 2 µg/mL | MIC [6]: 2 µg/mL | MIC (Escherichia coli [7]): 2 µg/mL

COc1ccc(-c2nnc(C[Se]c3nnn[nH]3)o2)cc1
IC50 [11]: 27.63 µg/mL (≈ 81.9 µM)

Cn1ncc2cc(-n3cc(CSc4nnnn4-c4cccc(F)c4)nn3)ccc21
MIC (Staphylococcus aureus [16]): 5 µg/mL (≈ 12.3 µM) | MIC (Pseudomonas aeruginosa [17]): 5 µg/mL (≈ 12.3 µM) | MIC (Micrococcus luteus): 5 µg/mL (≈ 12.3 µM) | MIC (Escherichia coli [18]): 5 µg/mL (≈ 12.3 µM) | MIC (Staphylococcus aureus [19]): 5 µg/mL (≈ 12.3 µM)

Cn1nnnc1SCC(=O)N1CCN(C2CCCCC2)CC1
MIC (Pichia kudriavzevii): 3.9 µg/mL (≈ 12 µM)

COc1ccccc1C1=C(C#N)/C(=C(/C)c2nnn[nH]2)NC(C)(c2ccccc2OC)C1 (stereo not drawn)
IC50 (Cholinesterase): 0.29 µM

O=P(O)(O)CN[C@@H](Cc1ccc2oc3ccccc3c2c1)c1nnn[nH]1
IC50 [1]: 0.006 µM

Cn1ncc2cc(-n3cc(CSc4nnnn4-c4cccc([N+](=O)[O-])c4)nn3)ccc21
MIC (Staphylococcus aureus [16]): 5 µg/mL (≈ 11.5 µM) | MIC (Pseudomonas aeruginosa [17]): 5 µg/mL (≈ 11.5 µM) | MIC (Nannizzia gypsea): 11 µg/mL (≈ 25.3 µM) | MIC (Micrococcus luteus): 5 µg/mL (≈ 11.5 µM) | MIC (Escherichia coli [18]): 5 µg/mL (≈ 11.5 µM) | MIC (Staphylococcus aureus [19]): 5 µg/mL (≈ 11.5 µM)

CC1=C(C)C2(C)CC1(C)C1C(=O)N(Nc3nnnn3-c3ccccc3Br)C(=O)C12 (stereo not drawn)
MIC (Staphylococcus aureus [20]): 0.1 µg/mL | MIC (Pseudomonas aeruginosa [12]): 0.4 µg/mL | MIC (Staphylococcus aureus [13]): 0.4 µg/mL (≈ 0.875 µM) | MIC [14]: 0.4 µg/mL (≈ 0.875 µM) | MIC (Escherichia coli [15]): 0.4 µg/mL (≈ 0.875 µM)

COc1ccc(-n2nnnc2SCc2cn(-c3ccc4c(cnn4C)c3)nn2)cc1
MIC (Aspergillus flavus): 10 µg/mL (≈ 23.8 µM)

C1=C(c2nnn(Cc3cn(Cc4ccccc4)nn3)n2)COc2ccccc21
IC50 [11]: 27.63 µg/mL (≈ 74.4 µM)

O=C(O)[C@H]1C[C@@H](Cc2nnn[nH]2)CCN1 (single isomer, unassigned)
IC50 [21]: 0.1 µM

COc1cccc2c1C(=O)c1c(O)c3c(c(O)c1C2=O)C[C@@](O)(C(=O)CO)C[C@@H]3O[C@H]1C[C@H](N)[C@H](O)[C@H](C)O1 [DOXORUBICIN]
IC50 (PC-3 [9]): 2.24 µM

OC(Cn1cncn1)(Cn1cncn1)c1ccc(F)cc1F [FLUCONAZOLE]
MIC (Pichia kudriavzevii): 7.8 µg/mL (≈ 25.5 µM)

CO/N=C1\CN(c2nc3c(cc2F)c(=O)c(C(=O)O)cn3C2CC2)CC1CN (stereo not drawn) [GEMIFLOXACIN]
MIC (Pseudomonas aeruginosa [17]): 10 µg/mL (≈ 25.7 µM) | MIC (Escherichia coli [18]): 10 µg/mL (≈ 25.7 µM)

CCC(C)n1ncn(-c2ccc(N3CCN(c4ccc(OCC5COC(Cn6cncn6)(c6ccc(Cl)cc6Cl)O5)cc4)CC3)cc2)c1=O (stereo not drawn) [ITRACONAZOLE]
MIC (Nannizzia gypsea): 10 µg/mL (≈ 14.2 µM) | MIC (Aspergillus flavus): 8 µg/mL (≈ 11.3 µM)

C[C@@H](c1ncncc1F)[C@](O)(Cn1cncn1)c1ccc(F)cc1F [VORICONAZOLE]
MIC (Pichia kudriavzevii): 3.9 µg/mL (≈ 11.2 µM)
